Legend:
[1] = Aqueous solubility of the compound in phosphate buffer at pH 7.4; assay type: physicochemical
[2] = Dissociation constant, pKa of the compound at pH 7.4 by UV spectrophotometric titration; assay type: physicochemical
physchem [3] = conditions: buffer, pH 7.4
physchem [4] = conditions: octanol/water

In the case of `COc1cc(N2CCN(S(C)(=O)=O)CC2)ccc1Nc1ncc(Cl)c(-c2cnc3ccccn23)n1`, the solubility [1] is reported as < 0.6 µM.
Compound `COc1cc(N2CC3CNCC(C2)O3)ccc1Nc1ncc(Cl)c(-c2cnc3ccccn23)n1` has a pKa [2] of 8.7, a logD (physchem [3]) of 2.3 and a logP (physchem [4]) of 3.6.
With `COc1cc(N2CC3CN(CCO)CC(C2)O3)ccc1Nc1ncc(Cl)c(-c2cnc3ccccn23)n1` the pKa [2] was 8.4.
With `COc1cc(N2CC3COCC(C2)N3)ccc1Nc1ncc(Cl)c(-c2cnc3ccccn23)n1` the pKa [2] was 6.7, the logD (physchem [3]) was 3 and the logP (physchem [4]) was 3.1.
